Data as given in ChEMBL document CHEMBL1144335, “7alpha,11beta-Dimethyl-19-nortestosterone: a potent and selective androgen response modulator with prostate-sparing properties” (Bioorg Med Chem Lett, 2005).

Legend:
[1] = target: T1, Androgen receptor (Rattus norvegicus) (UniProt P15207); experiment: Relative binding affinity for rat androgen receptor compared to dihydrotestosterone (100) (n=4)
T1 sequence (whole entry): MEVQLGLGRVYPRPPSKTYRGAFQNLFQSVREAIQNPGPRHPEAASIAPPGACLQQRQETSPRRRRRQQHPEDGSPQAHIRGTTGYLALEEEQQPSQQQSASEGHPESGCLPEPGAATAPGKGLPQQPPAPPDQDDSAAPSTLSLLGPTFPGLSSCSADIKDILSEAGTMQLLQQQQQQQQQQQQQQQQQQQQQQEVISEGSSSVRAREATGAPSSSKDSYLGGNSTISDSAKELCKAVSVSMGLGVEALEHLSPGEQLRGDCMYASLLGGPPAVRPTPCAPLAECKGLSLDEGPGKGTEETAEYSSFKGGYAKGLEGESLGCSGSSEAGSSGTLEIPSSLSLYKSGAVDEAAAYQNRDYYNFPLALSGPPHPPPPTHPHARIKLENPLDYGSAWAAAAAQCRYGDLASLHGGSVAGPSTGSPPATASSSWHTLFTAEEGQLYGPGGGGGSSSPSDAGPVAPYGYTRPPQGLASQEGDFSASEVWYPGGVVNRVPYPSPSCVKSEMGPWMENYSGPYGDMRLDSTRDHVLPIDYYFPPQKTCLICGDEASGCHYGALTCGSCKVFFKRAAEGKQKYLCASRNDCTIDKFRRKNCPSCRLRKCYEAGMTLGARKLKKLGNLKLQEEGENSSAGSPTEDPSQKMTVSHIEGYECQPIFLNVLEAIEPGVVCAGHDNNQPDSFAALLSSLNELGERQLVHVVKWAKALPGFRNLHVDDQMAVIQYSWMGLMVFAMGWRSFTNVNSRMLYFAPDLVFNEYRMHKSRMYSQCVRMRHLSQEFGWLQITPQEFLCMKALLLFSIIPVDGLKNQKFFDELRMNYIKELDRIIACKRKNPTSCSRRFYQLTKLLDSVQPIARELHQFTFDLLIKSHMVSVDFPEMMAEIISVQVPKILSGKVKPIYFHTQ

[2] = target: Estrogen receptor (Rattus norvegicus) (UniProt P06211+Q62986); experiment: Binding affinity for estrogen receptor in rat (n=3)

SMILES | Binding affinity [1] | Binding affinity [2]
C[C@@H]1CC2=CC(=O)CCC2C2C1C1CC[C@H](O)[C@@]1(C)C[C@@H]2C (stereo partly drawn) | 194 | 0.6
C[C@H]1C[C@@]2(C)C(CC[C@@H]2O)C2C1C1CCC(=O)C=C1C[C@@H]2C (stereo partly drawn) | 22 | –
